# According to publication PMC9069992 (Journal of the American Chemical Society, 2022):
# Columns and labels:
# GA of HeLa cells = assay: CLSM / single cell imaging of fluorescence accumulation at Golgi apparatus; type: cell-based, Homo sapiens; conditions: for accumulation at / targeting of GA (in words): CLSM, fluorescence at GA, Figures S16, S30A, S33, S35-S44; for effect of thioesterase inhibitor on GA accumulation of C6-NBD-Ceramide: Figures S11, S12; for effect of thioesterase inhibitor on accumulation of 1 at GA: by itself or in combination, Figures S4, S9, S10
# [1] = Critical micelle concentration; type: physicochemical; conditions: Figure 1C
# TEM of self-assembly = type: physicochemical; conditions: 20 μM, Figure S43
# carboxylesterase (CES1) = biological target: T1, carboxylesterase (CES1) (Homo sapiens, UniProt P23141); assay: Cell free hydrolysis by carboxylesterase; type: biochemical; conditions: cell free assay, Figure S13
# T1 sequence (P23141 18-567): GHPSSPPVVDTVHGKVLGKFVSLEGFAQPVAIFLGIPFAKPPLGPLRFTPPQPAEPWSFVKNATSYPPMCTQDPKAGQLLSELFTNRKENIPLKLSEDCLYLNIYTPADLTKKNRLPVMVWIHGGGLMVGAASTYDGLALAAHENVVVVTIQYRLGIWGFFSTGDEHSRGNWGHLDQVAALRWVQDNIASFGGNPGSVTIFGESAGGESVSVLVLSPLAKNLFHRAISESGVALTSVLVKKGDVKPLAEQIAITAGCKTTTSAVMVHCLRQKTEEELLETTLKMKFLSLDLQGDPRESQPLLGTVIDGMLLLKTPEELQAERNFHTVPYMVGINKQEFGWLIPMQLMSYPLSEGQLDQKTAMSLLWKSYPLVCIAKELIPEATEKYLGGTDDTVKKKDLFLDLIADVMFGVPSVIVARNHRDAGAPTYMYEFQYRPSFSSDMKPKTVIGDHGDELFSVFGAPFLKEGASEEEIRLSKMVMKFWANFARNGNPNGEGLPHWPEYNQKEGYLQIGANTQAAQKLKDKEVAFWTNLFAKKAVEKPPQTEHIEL
# NRAS = assay: ICC staining of NRAS distribution in MCF-7 cells; type: cell-based, Homo sapiens; conditions: MCF-7, 10 μM, 30 min, ICC staining with NRAS antibody, Figure 3C
# [2] = tested on: GA of HeLa, Saos-2, HEK293, MCF-7, HS-5, SJSA-1, HepG2, B16F10, S2 cells; assay: CLSM of GA targeting in various cell lines; type: cell-based, Homo sapiens, Mus musculus, Drosophila; conditions: 10 μM, 8 min, Figure 2B
# [3] = tested on: neutrophils (polymorphonuclear leukocytes); assay: GA localization in primary cells; type: cell-based; conditions: Figure S24
smiles,measurement,setting,value
"CCCCCCCCCCCCC/C=C/[C@@H](O)[C@H](CO)NC(=O)CCCCCNc1ccc([N+](=O)[O-])c2nonc12 [C6-NBD-ceramide, C6-NBD-Ceramide, reference compound]",accumulation at / targeting of GA (in words),GA of HeLa cells,shows dim fluorescence over 16 minutes
"CN(CCCCCCNc1ccnc2cc(Cl)ccc12)CCCCCCNc1ccnc2cc(Cl)ccc12 [DC661, reference compound]",effect of thioesterase inhibitor on GA accumulation of C6-NBD-Ceramide,GA of HeLa cells,cannot block the GA accumulation
same,effect of thioesterase inhibitor on accumulation of 1 at GA,GA of HeLa cells,efficiently block 1 accumulating at GA
"CC(C)(C)C1CCN(C(=O)n2ncc(C(O)(c3ccccc3)c3ccccc3)n2)CC1 [ML211, reference compound]",effect of thioesterase inhibitor on GA accumulation of C6-NBD-Ceramide,GA of HeLa cells,cannot block the GA accumulation
same,effect of thioesterase inhibitor on accumulation of 1 at GA,GA of HeLa cells,efficiently block 1 accumulating at GA
CC(=O)SCCNC(=O)[C@@H](Cc1ccccc1)NC(=O)[C@@H](Cc1ccccc1)NC(=O)CCNc1ccc([N+](=O)[O-])c2nonc12 [compound 1],critical micelle concentration (CMC),[1],2.1 µM
same,accumulation at / targeting of GA (in words),GA of HeLa cells,accumulates primarily at GA
same,time after addition until GA becomes distinguishable,"GA of HeLa cells; Figures S1, S2, video S1",less than 1 min
same,dependence on clathrin-mediated endocytosis at 2 μM,"GA of HeLa cells; HeLa treated with chlorpromazine, 2 μM of 1, Figure S8",hardly
same,dependence on clathrin-mediated endocytosis at 10 μM,"GA of HeLa cells; HeLa treated with chlorpromazine, 10 μM of 1, Figure S8",only slightly
same,time until fluorescence plateaus outside GA,"GA of HeLa cells; HeLa, 10 μM, 60 min, single cell imaging analysis, Figure 1B",> 45 min
same,enhancement of fluorescence intensity at GA from 1 minute to 8 minutes,"GA of HeLa cells; HeLa, Figure S15",at least 3 times
same,self-assembly seen by TEM (in words),TEM of self-assembly,self-assembles into nanoparticles and nanofibers
same,hydrolysis by carboxylesterase (CES1) (in words),carboxylesterase (CES1),able to catalyze the hydrolysis of 1
same,intracellular distribution of NRAS after pretreatment (in words),NRAS,relocates from mainly plasma membrane to overwhelmingly GA
same,targeting GA of various cells (in words),[2],able to target GA of various cells from different organisms
same,entry into primary cells and localization (in words),[3],localizes at GA
